Columns and labels:
olfr145 = target: T1, olfr145 (Mus musculus, UniProt Q60882); experiment: OR transcript downregulation by RNAseq after in vivo exposure; conditions: 5% odorant, 5 hours
T1 construct: from tissue; host or cells: main olfactory epithelium of living mice
Procedure: Animals were exposed to 5% acetophenone for 5 hours before RNA extraction (as previously described). cDNA libraries were generated with the Truseq RNA and DNA sample preparation kits after selection of polyA-containing mRNAs. Adapters for RNAseq multiplexing were added to the cDNAs. The cDNA libraries were sequenced with a HiSeq®2500 Sequencing system. 100 bp reads were mapped using Bowtie2 with a 28 bp seed. The differential gene expression analyses were performed with DESeq2. Because of the high sequence similarity between OR gene paralogs, some reads are mapped to multiple OR genes. These reads were removed from the analysis.
Mice (n=6) were exposed to 5% acetophenone or to a “neutral” control condition for 5 hours. An olfactory cDNA library corresponding to each animal was deep sequenced and the ratios of odorant receptor mRNA concentrations relative to controls were plotted (FIG. 3). […] Based on transcriptional downregulation levels observed by RNAseq following acetophenone exposure, a list of 26 candidate responsive ORs was determined (FIG. 3), that reached 74% decrease (Olfr145) or even over 80% (Olfr169) relative to controls. […] The transcript downregulation of 21 out of the 26 olfactory receptor candidates obtained by RNAseq was confirmed by qPCR.

OSNs expressing olfr109 = experiment: pS6 immunolabeling with OR in situ hybridization after odorant exposure; type: in vivo, mouse; conditions: 5% acetophenone, 60 minutes
Procedure: (§1) In order to independently validate the identity of an acetophenone receptor obtained with the RNAseq approach, the potential colocalization following acetophenone exposure of a neuronal activity marker (the phosphorylated ribosomal protein S6 (pS6) (Knight et al., 2012, Cell, 151, 1126-1137) and specific olfactory receptors were evaluated. To this aim, in-situ hybridizations were performed on sections of olfactory tissue with probes targeting receptor mRNAs followed by immunolabeling of pS6. The probes used were directed against the transcripts of most of the ORs determined as responsive including Olfr983 transcripts (encoding a known acetophenone receptor), Olfr171 transcripts (encoding a known ethyl isobutyrate receptor), and Olfr145 transcripts, encoding a newly identified receptor by RNAseq. Before analysis, mice were exposed to either 5% acetophenone, 5% ethyl isobutyrate, or a negative control condition for 60 minutes. […] 66% (Olfr983) and 70% (Olfr145) of the neurons were positive for pS6 after acetophenone exposure, while only 11% of the neurons expressing Olfr171 were positive for pS6 after exposure to this compound.

OSNs expressing olfr1377 = experiment: as above; type: in vivo, mouse; conditions: 5% acetophenone, 60 minutes
Procedure: as §1

OSNs expressing olfr143 = experiment: as above; type: in vivo, mouse; conditions: 5% acetophenone, 60 minutes
Procedure: as §1

OSNs expressing olfr160 = experiment: as above; type: in vivo, mouse; conditions: 5% acetophenone, 60 minutes
Procedure: as §1

OSNs expressing olfr19 = experiment: as above; type: in vivo, mouse; conditions: 5% acetophenone, 60 minutes
Procedure: as §1

OSNs expressing olfr229 = experiment: as above; type: in vivo, mouse; conditions: 5% acetophenone, 60 minutes
Procedure: as §1

OSNs expressing olfr30 = experiment: as above; type: in vivo, mouse; conditions: 5% acetophenone, 60 minutes
Procedure: as §1

OSNs expressing olfr478 = experiment: as above; type: in vivo, mouse; conditions: 5% acetophenone, 60 minutes
Procedure: as §1

OSNs expressing olfr556 = experiment: as above; type: in vivo, mouse; conditions: 5% acetophenone, 60 minutes
Procedure: as §1

OSNs expressing olfr745 = experiment: as above; type: in vivo, mouse; conditions: 5% acetophenone, 60 minutes
Procedure: as §1

OSNs expressing olfr901 = experiment: as above; type: in vivo, mouse; conditions: 5% acetophenone, 60 minutes
Procedure: as §1

OSNs expressing olfr922 = experiment: as above; type: in vivo, mouse; conditions: 5% acetophenone, 60 minutes
Procedure: as §1

OSNs expressing olfr935 = experiment: as above; type: in vivo, mouse; conditions: 5% acetophenone, 60 minutes
Procedure: as §1

[1] = tested on: neurons expressing Olfr145; experiment: as above; type: in vivo, mouse; conditions: 60 minutes
Procedure: as §1

[2] = tested on: neurons expressing Olfr983; experiment: as above; type: in vivo, mouse; conditions: 60 minutes
Procedure: as §1

OSNs expressing olfr1135 = experiment: as above; type: in vivo, mouse; parameters: key: y: neuronal activation (i.e. pS6 signal in a fraction of neuron exceeding 15% relative to controls); no pS6 signals; conditions: 5% acetophenone, 60 minutes
Procedure: as §1

OSNs expressing olfr1350 = experiment: as above; type: in vivo, mouse; parameters: key: y: neuronal activation (i.e. pS6 signal in a fraction of neuron exceeding 15% relative to controls); no pS6 signals; conditions: 5% acetophenone, 60 minutes
Procedure: as §1

OSNs expressing olfr378 = experiment: as above; type: in vivo, mouse; parameters: key: y: neuronal activation (i.e. pS6 signal in a fraction of neuron exceeding 15% relative to controls); no pS6 signals; conditions: 5% acetophenone, 60 minutes
Procedure: as §1

OSNs expressing olfr490 = experiment: as above; type: in vivo, mouse; parameters: key: y: neuronal activation (i.e. pS6 signal in a fraction of neuron exceeding 15% relative to controls); no pS6 signals; conditions: 5% acetophenone, 60 minutes
Procedure: as §1

OSNs expressing olfr750 = experiment: as above; type: in vivo, mouse; parameters: key: y: neuronal activation (i.e. pS6 signal in a fraction of neuron exceeding 15% relative to controls); no pS6 signals; conditions: 5% acetophenone, 60 minutes
Procedure: as §1

Olfr556 = target: T2, Olfr556 (Mus musculus, UniProt B2RRG2); conditions: expressed in HEK cells; previously shown; read-out: EC50 as agonist of Olfr556; cited from earlier work
T2 sequence (B2RRG2 1-324): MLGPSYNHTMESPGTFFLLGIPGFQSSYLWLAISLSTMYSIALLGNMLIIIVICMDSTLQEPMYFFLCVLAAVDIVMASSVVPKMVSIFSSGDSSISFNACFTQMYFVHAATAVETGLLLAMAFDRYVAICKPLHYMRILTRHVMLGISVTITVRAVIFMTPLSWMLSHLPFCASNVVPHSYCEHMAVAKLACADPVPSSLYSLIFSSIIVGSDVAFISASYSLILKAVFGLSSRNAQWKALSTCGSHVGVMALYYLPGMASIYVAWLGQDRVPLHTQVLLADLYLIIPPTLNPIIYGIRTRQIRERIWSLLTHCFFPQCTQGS

Olfr983 = conditions: expressed in HEK cells; previously shown; read-out: EC50 as agonist of Olfr983; cited from earlier work

T1 sequence (Q60882 whole entry): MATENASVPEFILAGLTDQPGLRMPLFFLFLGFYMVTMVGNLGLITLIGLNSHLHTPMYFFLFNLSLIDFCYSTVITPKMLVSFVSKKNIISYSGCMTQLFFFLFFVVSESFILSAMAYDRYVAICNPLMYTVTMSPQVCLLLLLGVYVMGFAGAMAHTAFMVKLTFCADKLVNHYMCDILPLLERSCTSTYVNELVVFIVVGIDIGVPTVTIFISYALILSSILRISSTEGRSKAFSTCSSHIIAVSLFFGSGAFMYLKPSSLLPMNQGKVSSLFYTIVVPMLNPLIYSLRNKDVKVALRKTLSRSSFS

## CC(=O)c1ccccc1 [acetophenone]
olfr145
  Olfr145 transcript decrease relative to controls (RNAseq): 74%
OSNs expressing olfr109
  olfr109 ps6 positive: y (neuronal activation (i.e. pS6 signal in a fraction of neuron exceeding 15% relative to controls))
OSNs expressing olfr1377
  olfr1377 ps6 positive: y (neuronal activation (i.e. pS6 signal in a fraction of neuron exceeding 15% relative to controls))
OSNs expressing olfr143
  olfr143 ps6 positive: y (neuronal activation (i.e. pS6 signal in a fraction of neuron exceeding 15% relative to controls))
OSNs expressing olfr160
  olfr160 ps6 positive: y (neuronal activation (i.e. pS6 signal in a fraction of neuron exceeding 15% relative to controls))
OSNs expressing olfr19
  olfr19 ps6 positive: y (neuronal activation (i.e. pS6 signal in a fraction of neuron exceeding 15% relative to controls))
OSNs expressing olfr229
  olfr229 ps6 positive: y (neuronal activation (i.e. pS6 signal in a fraction of neuron exceeding 15% relative to controls))
OSNs expressing olfr30
  olfr30 ps6 positive: y (neuronal activation (i.e. pS6 signal in a fraction of neuron exceeding 15% relative to controls))
OSNs expressing olfr478
  olfr478 ps6 positive: y (neuronal activation (i.e. pS6 signal in a fraction of neuron exceeding 15% relative to controls))
OSNs expressing olfr556
  olfr556 ps6 positive: y (neuronal activation (i.e. pS6 signal in a fraction of neuron exceeding 15% relative to controls))
OSNs expressing olfr745
  olfr745 ps6 positive: y (neuronal activation (i.e. pS6 signal in a fraction of neuron exceeding 15% relative to controls))
OSNs expressing olfr901
  olfr901 ps6 positive: y (neuronal activation (i.e. pS6 signal in a fraction of neuron exceeding 15% relative to controls))
OSNs expressing olfr922
  olfr922 ps6 positive: y (neuronal activation (i.e. pS6 signal in a fraction of neuron exceeding 15% relative to controls))
OSNs expressing olfr935
  olfr935 ps6 positive: y (neuronal activation (i.e. pS6 signal in a fraction of neuron exceeding 15% relative to controls))
[1]; 5% acetophenone
  olfr145 ps6 positive: y (neuronal activation (i.e. pS6 signal in a fraction of neuron exceeding 15% relative to controls))
[1]; 5% odorant, in vivo
  fraction of Olfr145-expressing neurons positive for pS6: 70%
[2]; 5% acetophenone
  olfr983 ps6 positive: y (neuronal activation (i.e. pS6 signal in a fraction of neuron exceeding 15% relative to controls))
[2]; 5% odorant, in vivo
  fraction of Olfr983-expressing neurons positive for pS6: 66%
OSNs expressing olfr1135
  olfr1135 ps6 positive: n
OSNs expressing olfr1350
  olfr1350 ps6 positive: n
OSNs expressing olfr378
  olfr378 ps6 positive: n
OSNs expressing olfr490
  olfr490 ps6 positive: n
OSNs expressing olfr750
  olfr750 ps6 positive: n
Olfr556
  EC50: < 50 µM
Olfr983
  EC50: < 50 µM

Reference: patent publication US10473645B2, “Methods for identifying a receptor for a ligand and uses thereof” (UNIVERSITE DE GENEVE, priority 2014, dated 2019)
